Experimental findings from patent US9840508B2, “N-acyl-(3-substituted)-(8-methyl)-5,6-dihydro-[1,2,4]triazolo[4,3-a] pyrazines as selective NK-3 receptor antagonists, pharmaceutical composition, methods for use in NK-3 receptor-mediated disorders” (EUROSCREEN SA, priority 2013, dated 2017) are described below.

One assay has as its target human NK-2 receptor (Homo sapiens (Human), UniProt P21452). As to the kind of experiment: Selectivity binding assay, human NK-2 ([125I]-Neurokinin A). The settings on record: CHO cell membranes; 0.1 nM [125I]-Neurokinin A; read-out: hNK-2 (Ki). The procedure: Selectivity of the compounds of the invention was determined over the other human NK receptors, namely NK-1 and NK-2 receptors.
The affinity of compounds of the invention for the NK-2 receptor was evaluated in CHO recombinant cells which express the human NK-2 receptor. Membrane suspensions were prepared from these cells. The following radioligand [^125I]-Neurokinin A (PerkinElmer Cat#NEX252) was used in this assay. Binding assays were performed in a 25 mM HEPES/1 mM CaCl2/5 mM MgCl2/0.5% BSA/10 μg/ml saponin, at pH 7.4. Binding assays consisted of 25 μl of membrane suspension (approximately 3.75 μg of protein/well in a 96 well plate), 50 μl of compound or reference ligand (Neurokinin A) at increasing concentrations (diluted in assay buffer) and 0.1 nM [^125I]-Neurokinin A. The plate was incubated 60 min at 25° C. in a water bath and then filtered over GF/C filters (Perkin Elmer, 6005174, presoaked in assay buffer without saponine for 2 h at room temperature) with a Filtration unit (Perkin Elmer). The radioactivity retained on the filters was measured by using the TopCount-NXT reader (Packard). Competition curves were obtained for compounds of the invention and the concentrations of compounds which displaced 50% of bound radioligand (IC50) were determined and then apparent inhibition constant Ki values were calculated by the following equation: Ki=IC50/(1+[L]/KD) where [L] is the concentration of free radioligand and KD is its dissociation constant at the receptor, derived from saturation binding experiments (Cheng and Prusoff, 1973).

The target in a further assay is hERG channel (Homo sapiens (Human), UniProt Q12809). Nature of the assay: hERG inhibition assay (manual patch-clamp, HEK 293 cells). Format: cell-based. The settings on record: HEK 293 cells stably transfected with hERG, read-out: CardioSafety (hERG IC50). The text has this: The human ether-a-go-go related gene (hERG) encodes the inward rectifying voltage gated potassium channel in the heart (IKr) which is involved in cardiac repolarisation. […] IKr current inhibition accounts for the vast majority of known cases of drug-induced QT-prolongation. A number of drugs have been withdrawn from late stage clinical trials due to these cardiotoxic effects, therefore it is important to identify inhibitors early in drug discovery.
Chain of hERG channel (Q12809 whole entry): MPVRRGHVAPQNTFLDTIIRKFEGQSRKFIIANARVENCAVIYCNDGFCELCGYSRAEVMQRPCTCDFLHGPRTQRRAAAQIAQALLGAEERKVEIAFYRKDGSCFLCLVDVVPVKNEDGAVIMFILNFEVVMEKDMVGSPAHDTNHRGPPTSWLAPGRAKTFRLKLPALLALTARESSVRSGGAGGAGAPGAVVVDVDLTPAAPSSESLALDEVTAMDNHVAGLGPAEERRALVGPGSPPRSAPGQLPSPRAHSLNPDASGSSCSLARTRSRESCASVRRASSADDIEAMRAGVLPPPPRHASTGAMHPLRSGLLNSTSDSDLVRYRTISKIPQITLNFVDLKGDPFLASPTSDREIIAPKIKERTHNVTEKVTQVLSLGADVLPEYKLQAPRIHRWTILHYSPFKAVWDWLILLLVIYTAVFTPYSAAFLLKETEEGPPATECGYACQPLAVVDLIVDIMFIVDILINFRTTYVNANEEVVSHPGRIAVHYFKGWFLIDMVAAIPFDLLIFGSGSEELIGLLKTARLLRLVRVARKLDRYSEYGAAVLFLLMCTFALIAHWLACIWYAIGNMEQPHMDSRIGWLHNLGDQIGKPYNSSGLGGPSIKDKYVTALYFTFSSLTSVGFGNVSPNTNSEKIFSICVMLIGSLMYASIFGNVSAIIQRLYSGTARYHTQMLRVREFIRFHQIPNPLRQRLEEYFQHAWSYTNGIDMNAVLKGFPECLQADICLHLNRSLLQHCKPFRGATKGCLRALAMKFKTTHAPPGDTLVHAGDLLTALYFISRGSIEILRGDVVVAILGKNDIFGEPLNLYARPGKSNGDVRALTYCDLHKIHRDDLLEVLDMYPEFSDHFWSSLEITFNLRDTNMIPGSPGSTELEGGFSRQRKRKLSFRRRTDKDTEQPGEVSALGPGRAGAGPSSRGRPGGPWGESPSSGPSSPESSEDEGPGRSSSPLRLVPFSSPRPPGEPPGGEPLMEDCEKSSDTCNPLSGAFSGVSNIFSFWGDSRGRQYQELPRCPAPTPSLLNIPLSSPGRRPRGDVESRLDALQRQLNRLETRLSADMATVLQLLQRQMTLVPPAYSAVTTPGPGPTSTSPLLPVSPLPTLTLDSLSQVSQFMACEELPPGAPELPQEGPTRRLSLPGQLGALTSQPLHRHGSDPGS
The hERG inhibition study aims at quantifying the in vitro effects of compounds of the invention on the potassium-selective IKr current generated in normoxic conditions in stably transfected HEK 293 cells with the human ether-a-go-go-related gene (hERG).
Whole-cell currents (acquisition by manual patch-clamp) elicited during a voltage pulse were recorded in baseline conditions and following application of tested compounds (5 minutes of exposure). The concentrations of tested compounds (0.3 μM; 3 μM; 10 μM; 30 μM) reflect a range believed to exceed the concentrations at expected efficacy doses in preclinical models. […]
The current density recorded were normalized against the baseline conditions and corrected for solvent effect and time-dependent current run-down using experimental design in test compound free conditions. […]

Another assay deals with circulating LH levels. Nature of the assay: Castrated male rat model, circulating luteinizing hormone (LH), oral dosing. Format: in vivo. Particulars: castrated male SD rat; single oral dose less than or equal to 30 mg/kg; p<0.05. The procedure: In vivo Assay to Assess Compound Activity in Rat (Oral Dosing)
The effect of compounds of the invention to inhibit luteinizing hormone (LH) secretion is determined by the following biological studies.
Castrated Male Rat Model to Assess the Effect of Compound of Invention on Circulating Levels of Luteinizing Hormone (LH)
In humans and rodents, castration is well-precedented to permit heightened, persistent GnRH signaling and consequent elevation of circulating LH. Thus, a castrated rat model is used to provide a broad index for measurement of LH inhibition as a marker of test compound inhibition of the GnRH signaling pathway.
Castrated adult male Sprague-Dawley (SD) rats (150-175 g) were purchased from Janvier (St Berthevin, France). All animals were housed 2 per cage in a temperature-controlled room (22±2° C.) and 50±5% relative humidity with a 12 hour/12 hour light/dark cycles (lights off at 6 h00 pm). The animals were allowed 3 weeks of postoperative recovery prior to study. Animals were handled on a daily basis. Standard diet and tap water were provided ad libitum. Animal cage litters were changed once a week. […]
After basal sampling (TO) a single dose of compounds of the invention or vehicle was administrated orally to rats. […] Serum LH levels were determined using radioimmunoassay kit from RIAZEN—Rat LH, Zentech (Liège, Belgium). […]

Chain of human NK-2 receptor (P21452 whole entry): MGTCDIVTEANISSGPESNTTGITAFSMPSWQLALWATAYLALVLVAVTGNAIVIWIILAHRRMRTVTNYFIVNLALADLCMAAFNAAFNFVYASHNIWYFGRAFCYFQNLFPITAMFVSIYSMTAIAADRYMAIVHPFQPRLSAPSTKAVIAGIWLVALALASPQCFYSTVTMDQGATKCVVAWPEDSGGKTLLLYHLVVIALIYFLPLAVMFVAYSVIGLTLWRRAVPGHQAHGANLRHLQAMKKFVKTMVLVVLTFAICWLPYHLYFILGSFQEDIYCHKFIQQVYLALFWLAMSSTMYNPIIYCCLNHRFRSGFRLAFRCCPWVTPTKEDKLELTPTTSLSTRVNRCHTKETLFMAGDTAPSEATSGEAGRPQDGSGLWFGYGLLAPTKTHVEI

As for `Cc1ccc(-c2nnc3n2CCN(C(=O)c2ccc(F)cc2)[C@@H]3C)o1` [Compound 1, (R)-(4-fluorophenyl)(8-methyl-3-(5-methylfuran-2-yl)-5,6-dihydro-[1,2,4]triazolo[4,3-a]pyrazin-7(8H)-yl)methanone], the Ki at human NK-2 receptor came to 52 µM. Besides, at hERG channel, the IC50 is 31 µM. The “Suppression of circulating LH levels” value in the assay with circulating LH levels is reported as “significantly suppressed circulating LH levels”.

Consider `C[C@@H]1c2nnc(-c3csc(C(F)(F)F)n3)n2CCN1C(=O)c1ccc(F)cc1` [Compound 3, (R)-(4-fluorophenyl)(8-methyl-3-(2-(trifluoromethyl)thiazol-4-yl)-5,6-dihydro-[1,2,4]triazolo[4,3-a]pyrazin-7(8H)-yl)methanone], for which the Ki on human NK-2 receptor worked out at 6.6 µM. For the same molecule, on hERG channel, the IC50 worked out at 70 µM.
